Reference: patent publication US10239825B2, “Ketamine derivatives” (Auckland Uniservices Limited, priority 2013, dated 2019)

Legend:
[1] = in vivo; cited from earlier work
[2] = tested on: adult female Sprague-Dawley rats; test: rat infusion study: pedal withdrawal reflex PWR = 1 (analgesic effect); type: in vivo; details: for minimal effective dose: Rattus norvegicus, iv, total drug administered to achieve PWR = 1, i.v. infusion; for PWR = 1 Dose, head-to-head ratio to ketamine / PWR = 1 Time, head-to-head ratio to ketamine: ratio compound/ketamine; for PWR = 1 Time: time from onset of i.v. infusion to PWR = 1
Experimental: (§1) All animal experiments were conducted at the Ruakura Research Centre, Hamilton, New Zealand, using experimental protocols reviewed and approved by the Ruakura Animal Ethics Committee (ethics ref 12604).
(§2) Following acquisition of baseline physiologic parameters (heart rate, respiratory rate, PWR, and righting reflex (RR)) adult female Sprague-Dawley rats of approximately 350-450 g were put under non-traumatic restraint and the marginal vein of the tail was cannulated. Ketamine or a compound of the invention at 10 mg/ml was administered via a minibore extension tube adequately secured to the tail. Infusions were commenced at a rate (weight-adjusted) to deliver 20 mg/kg/min initially (until the pedal withdrawal reflex score PWR=1), then were reduced to a rate of 6.7 mg/kg/min. Infusion rate was then titrated in an up-and-down fashion to maintain dorsal recumbency and a PWR=1 to 10 minutes before cessation. Three rats were used in each study, with each group of rats also acting as their own ketamine control. The order of study drug administration was determined by prior odds/evens randomisation with a recovery interval of at least one hour afforded between experiments. PWR and RR were recorded at 1 minute intervals throughout. The times from cessation of infusion to return of righting reflex (RRR), and from cessation of infusion to the animals displaying independent locomotion (walk) were recorded.
Pedal Withdrawal Reflex (PWR) Scoring:
Nociceptive testing in animals was conducted via 1 second application of constant pressure (firm digital pressure) over the forepaw of the animal. Pedal withdrawal reflex testing is primarily used to assess analgesic effect, and responses are graded accordingly: 0, absent; 1, flicker; 2, moderate withdrawal; 3, fast withdrawal; 4, Fast withdrawal with cry/preceding apnoea (modified from Buitrago, S. et al. J. Amer. Assoc. Lab. Animal. Sci. 2008, 47, 11-17).

[3] = tested on: adult female Sprague-Dawley rats; test: rat infusion study: loss/recovery of righting reflex and walk (anaesthetic effect); type: in vivo; details: for minimal effective dose: Rattus norvegicus, iv, total drug administered to achieve loss of righting reflex, i.v. infusion, read-out: LRR Dose; for LRR Dose, head-to-head ratio to ketamine / LRR Time, head-to-head ratio to ketamine / RRR Time, head-to-head ratio to ketamine / Walk Time, head-to-head ratio to ketamine: ratio compound/ketamine; for Walk Time: time from end of infusion to independent locomotion; for RRR Time: time from end of infusion to recovery of righting reflex; for LRR Time: time from onset of i.v. infusion to loss of righting reflex, 20 mg/kg/min initially; for potency (in words) / recovery (in words): rat infusion study, discussion
Experimental: as §1, §2
Loss of Righting Reflex (LRR):
This is primarily used to assess anaesthetic hypnotic effect. Righting reflex is judged absent when the rat fails to right from a position of dorsal recumbency to a position of sternal recumbency on three attempts performed in rapid succession. Dose to LRR is termed effective potency.

[4] = tested on: adult female Sprague-Dawley rats; test: rat infusion study: loss/recovery of righting reflex and walk (anaesthetic effect); type: in vivo; details: exploratory, mostly single-animal evaluations
[5] = pharmacological, analgesic and anaesthetic properties; cited from earlier work
[6] = average over the various experiments
[7] = range over the various experiments

SMILES | minimal effective dose [2] [mg/kg] | minimal effective dose [3] [mg/kg] | melting point [°C] | PWR = 1 Dose, head-to-head ratio to ketamine [2] | PWR = 1 Time, head-to-head ratio to ketamine [2] | PWR = 1 Time [2] [s] | LRR Dose, head-to-head ratio to ketamine [3] | LRR Time, head-to-head ratio to ketamine [3] | RRR Time, head-to-head ratio to ketamine [3] | Walk Time, head-to-head ratio to ketamine [3] | Walk Time [3] [s] | RRR Time [3] [s] | LRR Time [3] [s] | sedative effect (in words) [4] | potency (in words) [3] | other results
CNC1(c2ccccc2Cl)CCCCC1=O (racemic) [rac-ketamine, (2-o-Chlorophenyl)-2-methylamino-cyclohexanone, reference compound] | 26 ± 1 | 20 ± 1 | – | – | – | – | – | – | – | – | – | – | – | – | – | half-life [1]: 2 to 3 h; Time to PWR = 1, Average [2, 6]: 76 ± 9 s; Total dose to PWR = 1 ([2]; average over the various experiments (Table 4 row r8, second line so named)): 26 ± 4 mg/kg; Time to PWR = 1, Range [2, 7]: 60 to 95 s; Total dose to PWR = 1 ([2]; range over the various experiments (Table 4 row r8, second line so named)): 21 to 34 mg/kg; Time to RRR, Average [3, 6]: 1212 ± 318 s; Time to achieve LRR, Average [3, 6]: 61 ± 8 s; Time to walking, Average [3, 6]: 1709 ± 400 s; Total dose to LRR, Average ([3]; average over the various experiments (Table 4 row r6)): 21 ± 7 mg/kg; Time to RRR, Range [3, 7]: 863 to 2040 s; Time to achieve LRR, Range [3, 7]: 51 to 75 s; Time to walking, Range [3, 7]: 1100 to 2340 s; Total dose to LRR, Range ([3]; range over the various experiments (Table 4 row r6)): 17 to 27 mg/kg
CC(C)OC(=O)CCCCNC1(c2ccccc2Cl)CCCCC1=O.Cl (racemic) [rac-C4iPr, Isopropyl 5-((1-(2-chlorophenyl)-2-oxocyclohexyl)amino)pentanoate Hydrochloride] | 38 | 38 | 161 to 163 | 1.73 | 1.85 | 122 | 2.00 | 2.26 | 1.78 | 1.17 | 320 | 180 | 122 | – | – | –
COC(=O)CCCCN(C)C1(c2ccccc2Cl)CCCCC1=O (stereo not drawn) [compound 21, Methyl 5-((1-(2-chlorophenyl)-2-oxocyclohexyl)(methyl)amino)pentanoate] | 148 | 145 | – | 5.29 | 5.30 | 435 | 7.25 | 7.37 | – | 0.09 | 201 | 0 | 420 | weak sedative activity | less potent | –
CCOC(=O)CCN(C)C1(c2ccccc2Cl)CCCCC1=O (stereo not drawn) [compound 19, Ethyl 3-((1-(2-chlorophenyl)-2-oxocyclohexyl)(methyl)amino)propanoate] | 99 | 95 | – | 3.96 | 4.20 | 290 | 4.50 | 4.67 | – | – | 0 | 0 | 280 | very weak sedative effect | about as potent as the n-Pr norketamine esters | recovery (in words) [3]: very rapid recovery
CCOC(=O)CCCNC1(c2ccccc2Cl)CCCCC1=O.Cl (racemic) [rac-C3Et, Ethyl 4-((1-(2-chlorophenyl)-2-oxocyclohexyl)amino)butanoate Hydrochloride] | 44 ± 5 | 24 ± 2 | 186 to 189 | 1.83 | 1.80 | 137 ± 14 | 1.41 | 1.19 | 0.062 | 0.08 | 170 ± 17 | 95 ± 12 | 70 ± 6 | – | – | –
CCOC(=O)CCCCNC1(c2ccccc2Cl)CCCCC1=O.Cl (racemic) [rac-C4Et, Rac-Ethyl 5-((1-(2-chlorophenyl)-2-oxocyclohexyl)amino)pentanoate hydrochloride] | 57 ± 12 | 34 ± 4 | 169 to 172 | 2.48 | 2.26 | 172 ± 36 | 2.00 | 1.73 | 0.09 | 0.05 | 158 ± 22 | 134 ± 22 | 97 ± 8 | – | – | –
CN[C@]1(c2ccccc2Cl)CCCCC1=O [(S)-Ketamine] | – | – | – | – | – | – | – | – | – | – | – | – | – | – | – | potency relative to the racemate [5]: about twice as potent
CCOC(=O)CCCN(C)C1(c2ccccc2Cl)CCCCC1=O.Cl (stereo not drawn) [compound 20, Ethyl 4-((1-(2-chlorophenyl)-2-oxocyclohexyl)(methyl)amino)butanoate Hydrochloride] | 196 | 196 | – | 6.76 | 6.98 | 600 | 7.84 | 8.00 | – | – | 0 | 0 | 600 | weak sedative activity | less potent | –
CC(C)OC(=O)CCN[C@]1(c2ccccc2Cl)CCCCC1=O.Cl [(S)-C2iPr, (S)-Isopropyl 3-((1-(2-chlorophenyl)-2-oxocyclohexyl)amino)propanoate hydrochloride] | 84 ± 4 | 74 ± 9 | 208 to 211 | 2.47 | 3.14 | 247 ± 13 | 2.46 | 3.41 | 0.02 | 0.19 | 224 ± 90 | 15 ± 15 | 222 ± 18 | – | only half as potent | recovery (in words) [3]: faster recoveries than the corresponding racemates
